Test results published in ChEMBL document CHEMBL1155335, “Studies towards topical selective beta2-adrenoceptor agonists with a long duration of action” (Bioorg Med Chem Lett, 2009).
Active and inactive are the calls of the source. The calls are words filed in the database; no cut-off is given here.

How the values were obtained:
[1] = target: Beta-2 adrenergic receptor (Homo sapiens, UniProt P07550)
Description: Agonist activity at human beta2 adrenoceptor expressed in CHOK1 cell assessed as increase of intracellular cAMP level

[2] = target: Beta-1 adrenergic receptor (Homo sapiens, UniProt P08588)
Description: Agonist activity at human beta-1 adrenoceptor expressed in CHOK1 cell assessed as increase of intracellular cAMP level

Homo sapiens = species: Homo sapiens; experiment: Selectivity ratio, EC50 for human beta-1 adrenoceptor to EC50 for human beta2 adrenoceptor
Cavia porcellus [3] = experiment: Bronchoprotective activity in guinea pig assessed as inhibition of acetylcholine-induced increase in pulmonary resistance at 3 ug/kg, intratracheally after 5 hrs; assay type: functional, organism-based
Cavia porcellus [4] = experiment: Bronchoprotective activity in intratracheally dosed guinea pig assessed as inhibition of acetylcholine-induced increase in pulmonary resistance after 5 hrs; assay type: functional, organism-based
Cavia porcellus [5] = experiment: Toxicity in guinea pig assessed as increase in heart rate at 10 ug/kg, intratracheally after 90 mins; assay type: organism-based; conditions: in vivo, inhaled_or_intranasal, 0.01 mg/kg, 1.5 h
Cavia porcellus [6] = experiment: Toxicity in intratracheally dosed guinea pig assessed as increase in heart rate after 10 to 20 mins; assay type: organism-based; conditions: in vivo, inhaled_or_intranasal
Cavia porcellus [7] = experiment: Bronchoprotective activity in guinea pig assessed as inhibition of acetylcholine-induced increase in pulmonary resistance at 10 ug/kg, intratracheally after 5 hrs; assay type: functional; set-up: scale not given: the % may be the effect or the level left
Cavia porcellus [8] = experiment: Toxicity in guinea pig assessed as increase in heart rate at 3 ug/kg, intratracheally after 90 mins; assay type: organism-based; conditions: in vivo, inhaled_or_intranasal, 0.003 mg/kg, 1.5 h

Chain of Beta-1 adrenergic receptor (P08588 whole entry): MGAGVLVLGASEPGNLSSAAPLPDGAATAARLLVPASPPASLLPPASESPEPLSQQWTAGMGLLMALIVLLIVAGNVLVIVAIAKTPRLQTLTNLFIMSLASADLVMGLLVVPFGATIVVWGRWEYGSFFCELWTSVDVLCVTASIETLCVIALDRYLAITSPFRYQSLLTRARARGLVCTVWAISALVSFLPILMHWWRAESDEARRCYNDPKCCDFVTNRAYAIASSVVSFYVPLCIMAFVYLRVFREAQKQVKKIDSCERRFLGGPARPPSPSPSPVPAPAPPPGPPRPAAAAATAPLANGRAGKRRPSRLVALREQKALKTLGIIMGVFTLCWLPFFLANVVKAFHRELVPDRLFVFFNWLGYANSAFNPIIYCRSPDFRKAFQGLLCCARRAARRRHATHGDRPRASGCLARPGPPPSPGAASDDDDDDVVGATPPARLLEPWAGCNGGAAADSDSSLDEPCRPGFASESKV
Chain of Beta-2 adrenergic receptor (P07550 whole entry): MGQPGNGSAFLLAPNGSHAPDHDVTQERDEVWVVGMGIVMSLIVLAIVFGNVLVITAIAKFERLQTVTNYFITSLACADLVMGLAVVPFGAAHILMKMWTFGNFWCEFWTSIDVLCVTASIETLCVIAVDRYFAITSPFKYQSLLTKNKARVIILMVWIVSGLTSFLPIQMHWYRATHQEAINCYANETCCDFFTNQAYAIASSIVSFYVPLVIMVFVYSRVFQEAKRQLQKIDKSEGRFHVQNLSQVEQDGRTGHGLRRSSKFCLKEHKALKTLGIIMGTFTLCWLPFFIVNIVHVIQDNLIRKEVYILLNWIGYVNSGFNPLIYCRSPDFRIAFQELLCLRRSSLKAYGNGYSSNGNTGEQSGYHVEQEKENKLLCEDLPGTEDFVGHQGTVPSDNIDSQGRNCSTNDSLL

Structure (SMILES)	EC50 [1] [nM]	EC50 [2] [nM]	Ratio EC50 (Homo sapiens)	Activity (Cavia porcellus [3])	Activity (Cavia porcellus [4])	Activity (Cavia porcellus [5]) [%]	Activity (Cavia porcellus [6])	Activity (Cavia porcellus [7]) [%]	Activity (Cavia porcellus [8])
CC(C)(Cc1ccc(NC(=O)CCCNC(=O)C[N+](C)(C)C)cc1)NCC(O)c1cc(O)cc2c1OCC(=O)N2 (centres undefined)	11.6	28	2.4	–	–	–	–	–	–
CC(C)(Cc1ccc(NC(=O)CCCNC(=O)CN)cc1)NCC(O)c1ccc(O)c2c1OCC(=O)N2 (centres undefined)	1.2	4.5	3.8	Active	Dose-dependent effect	> 10	Toxic	100	–
CC(C)(Cc1ccc(NC(=O)CCCNC(=N)N)cc1)NCC(O)c1cc(O)cc2c1OCC(=O)N2 (centres undefined)	–	–	4.4	–	–	–	–	–	–
CC(C)(Cc1ccc(NC(=O)CCCN)cc1)NCC(O)c1ccc(O)c2c1OCC(=O)N2 (centres undefined)	1.1	3.4	3.1	–	–	–	–	–	–
CN1CCN(CC(=O)NCCCC(=O)Nc2ccc(CC(C)(C)NCC(O)c3ccc(O)c4c3OCC(=O)N4)cc2)CC1 (centres undefined)	1.2	5.7	4.8	–	–	–	–	–	–
CC(C)(Cc1ccc(NC(=O)CCCN=C(N)N)cc1)NCC(O)c1cc(O)cc2c1OCC(=O)N2 (centres undefined)	4.1	18	–	–	–	–	–	–	–
CC(C)(Cc1ccc(NC(=O)CCCNC(=O)C[N+](C)(C)C)cc1)NCC(O)c1ccc(O)c2c1OCC(=O)N2 (centres undefined)	1	3.5	3.5	–	–	–	–	–	–
CC(C)(Cc1ccc(NC(=O)CCCN)cc1)NCC(O)c1cc(O)cc2c1OCC(=O)N2 (centres undefined)	9	11	1.2	–	–	–	–	–	–
CC(C)(Cc1ccc(NC(=O)CCCNC(=O)CCN)cc1)NCC(O)c1ccc(O)c2c1OCC(=O)N2 (centres undefined)	0.9	4.6	5.1	–	–	–	–	–	–
CN(C)CC(=O)NCCCC(=O)Nc1ccc(CC(C)(C)NCC(O)c2ccc(O)c3c2OCC(=O)N3)cc1 (centres undefined)	0.5	5.3	10.6	–	–	–	–	–	–
CC(C)(Cc1ccc(NC(=O)CCCNCCCS(=O)(=O)O)cc1)NCC(O)c1ccc(O)c2c1OCC(=O)N2 (centres undefined)	1.8	9.9	5.5	–	Dose-dependent effect	–	Toxic	–	Active
CC(C)(Cc1ccc(NC(=O)CCCNC(=N)N)cc1)NCC(O)c1ccc(O)c2c1OCC(=O)N2 (centres undefined)	1	1.8	1.8	Active	Dose-dependent effect	> 10	Toxic	100	–
CC(C)(Cc1ccc(NC(=O)CCCNC(=O)C(N)CCCN)cc1)NCC(O)c1ccc(O)c2c1OCC(=O)N2 (centres undefined)	5.4	24	4.4	Active	Dose-dependent effect	> 10	Toxic	100	–
